Key:
S. sanguis = test: Ammonia production by S. sanguis at pH 4.0; type: cell-based; details: 5 millimolar, pH 4.0, 0.1% sucrose, 37° C., 30 minutes
Procedure: An overnight culture of S. sanguis was grown at 37° C. in trypticase soy broth (Becton Dickinson, Sparks, Md.). The culture was centrifuged at 5,000 rpm for 5 minutes at 1 milliliter at a time into preweighed tubes in order to accumulate approximately 5 milligrams of wet pellet weight. The pellet was then resuspended into 20 millimolar potassium phosphate buffer (JT Baker, Phillipsburg, N.J.), pH 4.0, to simulate a stressed environment for the bacterial cell where ammonia would be produced for survival. The final concentration was 5 milligram per milliliter. To this final concentration, a 5 millimolar final concentration of L-arginine, L-citrulline, or L-ornithine was added along with a 0.1% final concentration of sucrose (VWR, West Chester, Pa.). This mixture was then incubated at 37° C. in a shaking water bath for 30 minutes before ammonia production was determined.
In order to analyze for ammonia, an Ammonia Assay kit was used from Diagnostic Chemicals Limited (Oxford, Conn.). The intended use of this specific kit is for the in vitro quantification of ammonia in plasma, but the procedure was modified in order to determine and quantify the ammonia production in plaque and/or bacteria.

[1] = cited from earlier work

SMILES | Ammonia (S. sanguis; Mean of 6 trials) | Ammonia (S. sanguis; Trial 1) | Ammonia (S. sanguis; Trial 2) | Ammonia (S. sanguis; Trial 3) | Ammonia (S. sanguis; Trial 4) | Ammonia (S. sanguis; Trial 5) | Ammonia (S. sanguis; Trial 6) | solubility in water (in words) [1]
NCCC[C@H](N)C(=O)O [L-Ornithine, L-ornithine] | 0.134 ppm | 0.185 ppm | 0.260 ppm | 0.047 ppm | 0.0 ppm | 0.181 ppm | 0.135 ppm | –
Oc1cc(Cl)ccc1Oc1ccc(Cl)cc1Cl [triclosan, 5-chloro-2-(2,4-dichlorophenoxy)phenol] | – | – | – | – | – | – | – | only slightly soluble in water
N=C(N)NCCC[C@H](N)C(=O)O [L-Arginine, L-arginine] | 1.06 ppm | 0.509 ppm | 0.866 ppm | 2.20 ppm | 1.62 ppm | 0.5 ppm | 0.679 ppm | –
NC(=O)NCCC[C@H](N)C(=O)O [L-Citrulline, L-citrulline] | 0.951 ppm | 0.185 ppm | 0.346 ppm | 0.332 ppm | 0.194 ppm | 0.226 ppm | 0.951 ppm | –

Reference: US20180296453A1, “Oral Care Product and Methods of Use and Manufacture Thereof” (Colgate-Palmolive Company, priority 2008, published 2018)
